Where no end group is shown, it is not given here.

The values that follow come from US10907212B2, “Inhibitors of cell adhesion” (Regents of the University of Minnesota, priority 2016, dated 2021).

The first experiment has as its system nectin 4 protein on NIH:OVCAR-5 cells. The experiment is described as follows: Effect of peptides on anti-Nectin-4 antibody binding to cells as determined by flow cytometry. It counts as cell-based, human. The conditions noted are these: Run Five; 150 μg/mL peptide, 30 minutes; Control 5 = 17,768.90. On the procedure:
Confluent monolayers of cells were detached from 75 cm^2 tissue culture flasks using Accutase cell dissociation buffer (Innovative Cell Technologies, San Diego, Calif.), washed, and labeled with mouse IgG or mAbs against Nectin-4 or Nectin-1 (2.5 μg/10^6 cells) in Flow Buffer [phosphate buffered saline (PBS) containing 2.5% newborn calf serum and 0.02% sodium azide] for 30 min at 4° C.. Cells were washed and incubated with goat anti-mouse IgG F(ab′)2 (Jackson ImmunoResearch, West Grove, Pa.), then washed again and incubated with streptavidin-allophycocyanin conjugate (Jackson ImmunoResearch, West Grove, Pa.) for 30 min each. Cells were washed and fixed in Flow Buffer containing 1% formaldehyde and analyzed in the University of Minnesota Flow Cytometry Resource with a BD Accuri™ C6 flow cytometer (BD Biosciences, San Jose, Calif.) using the Accuri™ software.
Briefly, NIH:OVCAR-5 cells that natively express a moderate amount of nectin 4 protein were incubated for 30 minutes in 150 μg/mL of soluble peptide in DMSO. After incubation, the cells were washed, and then triple antibody stained using mouse anti-nectin 4 (or IgG control) primary antibody, biotinylated goat anti-mouse secondary antibody, and streptavidin APC tertiary antibody. Finally, utilizing the University of Minnesota flow core's Accuri C6 flow cytometer, the relative antibody binding affinity for control and peptide-treated samples was quantitated and compared. Data was collected for each of the 57 peptides generated.
“HGRRAGPVPTA-NH2 (listed as Homo sapiens) [Peptide 56]”: the “N4 MFI” value is 21,060.14.
Take “WTTLNGSLPKGVEAQNRT-NH2 (listed as Homo sapiens) [Peptide 57]”: the “N4 MFI” value is listed as 14,705.92.

The same experiment, now with this note: Run Five; Control 5 = 2.142155332.
“HGRRAGPVPTA-NH2 (listed as Homo sapiens) [Peptide 56]”: the “N4 MFI/IgG MFI” value came out at 2.035.
For “WTTLNGSLPKGVEAQNRT-NH2 (listed as Homo sapiens) [Peptide 57]”, the “N4 MFI/IgG MFI” value amounted to 1.874.

The same experiment, now with this note: Run Five; IgG control primary antibody; Control 5 = 8,294.87.
Turning to “HGRRAGPVPTA-NH2 (listed as Homo sapiens) [Peptide 56]”, the “IgG MFI” value is on record as 10,346.61.
The same measure, in the same setting: as for “WTTLNGSLPKGVEAQNRT-NH2 (listed as Homo sapiens) [Peptide 57]”, the figure is 7,848.89.

Staying with this experiment, now noted: Run Five; antibody binding relative to Control 5 = 100.
On to “HGRRAGPVPTA-NH2 (listed as Homo sapiens) [Peptide 56]”, for which the “nectin-4 antibody binding, percent of control” value came out at 113.1.
With “WTTLNGSLPKGVEAQNRT-NH2 (listed as Homo sapiens) [Peptide 57]”, the “nectin-4 antibody binding, percent of control” value was found to be 72.38.

Still in this experiment, the particulars now being: Run Four; 150 μg/mL peptide, 30 minutes; Control 4 = 9,631.58.
As for “GQDDKVLVATCTSANG-NH2 (listed as Homo sapiens) [Peptide 41]”, the “N4 MFI” value is given as 9,040.73.
Regarding “RLKGEAEYQEIRNP-NH2 (listed as Homo sapiens) [Peptide 43]”, the “N4 MFI” value was 9,677.93.

Staying with this experiment, now noted: Run Four; Control 4 = 9.387504873.
For the substance “GQDDKVLVATCTSANG-NH2 (listed as Homo sapiens) [Peptide 41]”, the “N4 MFI/IgG MFI” value was found to be 8.302.
In the case of “RLKGEAEYQEIRNP-NH2 (listed as Homo sapiens) [Peptide 43]”, the “N4 MFI/IgG MFI” value turned out to be 7.399.

Staying with this experiment, now noted: Run Four; IgG control primary antibody; Control 4 = 1,026.
On to “GQDDKVLVATCTSANG-NH2 (listed as Homo sapiens) [Peptide 41]”, for which the “IgG MFI” value is 1,089.
Regarding “RLKGEAEYQEIRNP-NH2 (listed as Homo sapiens) [Peptide 43]”, the “IgG MFI” value was found to be 1308.

Staying with this experiment, now noted: Run Four; antibody binding relative to Control 4 = 100.
With “GQDDKVLVATCTSANG-NH2 (listed as Homo sapiens) [Peptide 41]”, the “nectin-4 antibody binding, percent of control” value stood at 92.4.
“RLKGEAEYQEIRNP-NH2 (listed as Homo sapiens) [Peptide 43]”: the “nectin-4 antibody binding, percent of control” value is given as 97.26.

Still in this experiment, the particulars now being: Run One; 150 μg/mL peptide, 30 minutes; Control 1 = 15,015.
For “EGSPAPSVTWDTEV-NH2 (listed as Homo sapiens) [Peptide 13]”, the “N4 MFI” value is given as 15,623.
As to “ECRVSTFPAGSFQA-NH2 (listed as Homo sapiens) [Peptide 9]”, the “N4 MFI” value was 8,578.
Still for that read-out and setting: as for “AWARVDAGEGAQEL-NH2 (listed as Homo sapiens) [Peptide 4]”, the figure is 8,687; as for “LWHIGREGAMLKCL-NH2 (listed as Homo sapiens) [Peptide 20]”, 17,636.

The same experiment, now with this note: Run One; 150 μg/mL peptide, 30 minutes; IgG control primary antibody; Control 1 = 1,670.
In the case of “EGSPAPSVTWDTEV-NH2 (listed as Homo sapiens) [Peptide 13]”, the “IgG MFI” value is listed as 3,720.
Take “ECRVSTFPAGSFQA-NH2 (listed as Homo sapiens) [Peptide 9]”: the “IgG MFI” value is listed as 1,886.
Consider “AWARVDAGEGAQEL-NH2 (listed as Homo sapiens) [Peptide 4]”, for which the “IgG MFI” value is recorded as 2,199.
“LWHIGREGAMLKCL-NH2 (listed as Homo sapiens) [Peptide 20]”: the “IgG MFI” value is 1,890.

The experiment is the same for the next values; noted with them: Run One; Control 1 = 8.99.
As to “EGSPAPSVTWDTEV-NH2 (listed as Homo sapiens) [Peptide 13]”, the “N4 MFI/IgG MFI” value is 4.20.
With “ECRVSTFPAGSFQA-NH2 (listed as Homo sapiens) [Peptide 9]”, the “N4 MFI/IgG MFI” value is on record as 4.55.
Take “AWARVDAGEGAQEL-NH2 (listed as Homo sapiens) [Peptide 4]”: the “N4 MFI/IgG MFI” value worked out at 3.95.
Same read-out and setting: then “LWHIGREGAMLKCL-NH2 (listed as Homo sapiens) [Peptide 20]”, with 9.33.

The same experiment, now with this note: Run One; antibody binding relative to Control 1 = 100.00.
In the case of “EGSPAPSVTWDTEV-NH2 (listed as Homo sapiens) [Peptide 13]”, the “nectin-4 antibody binding, percent of control” value was 89.19.
Same read-out and setting: as for “ECRVSTFPAGSFQA-NH2 (listed as Homo sapiens) [Peptide 9]”, the figure is 50.15; as for “AWARVDAGEGAQEL-NH2 (listed as Homo sapiens) [Peptide 4]”, 48.62.
Still for that read-out and setting: as for “LWHIGREGAMLKCL-NH2 (listed as Homo sapiens) [Peptide 20]”, the figure is 117.99.

Still in this experiment, the particulars now being: flow cytometry; 150 μg/mL peptide.
Consider “ECRVSTFPAGSFQA-NH2 (listed as Homo sapiens) [Peptide 9]”, for which the “nectin-4 antibody binding compared to untreated control cells (in words)” value is on record as “reduction in nectin-4 antibody binding”.
Take “AWARVDAGEGAQEL-NH2 (listed as Homo sapiens) [Peptide 4]”: the “nectin-4 antibody binding compared to untreated control cells (in words)” value is reported as “reduction in nectin-4 antibody binding”.
“LWHIGREGAMLKCL-NH2 (listed as Homo sapiens) [Peptide 20]”: the “nectin-4 antibody binding compared to untreated control cells (in words)” value is “increased binding of nectin-4 antibody”.
On the same count and under the same terms, as for “WTTLNGSLPKGVEAQNRT-NH2 (listed as Homo sapiens) [Peptide 57]”, the entry is “reduction in nectin-4 antibody binding”.

The same experiment, now with this note: summary table; Nectin-4 antibody binding relative to control = 100.
Consider “ECRVSTFPAGSFQA-NH2 (listed as Homo sapiens) [Peptide 9]”, for which the Flow binding was determined as 50%.
“AWARVDAGEGAQEL-NH2 (listed as Homo sapiens) [Peptide 4]” had a Flow binding of 49%.
For “LWHIGREGAMLKCL-NH2 (listed as Homo sapiens) [Peptide 20]”, the Flow binding is given as 118%.

A further experiment concerns ovarian cancer cell aggregation and spheroid formation. The experiment is described as follows: Spheroid assay for peptides (visual scale +1 to +5). The experiment is classed as cell-based, human. The following applies: 24 hrs; visual scale of +1 to +5; Control = 2. On the procedure:
Spheroids were formed from the NIH:OVCAR5 cell lines described above using the liquid overlay method. One milliliter of a single cell suspension was seeded at a concentration of 50,000 cells/ml in OptiMEM® media, into 24-well tissue culture plates coated with 0.5% Seakem agarose (in complete RPMI-1640). Plates were incubated at 37° C. in a humidified incubator with 5% CO2. At various time points up to 5 days, the plates were removed from the incubator and the spheroids were photographed with a Nikon CoolPix digital camera mounted on an Olympus CK2 inverted microscope with a 4× objective. The size of the spheroids was determined using the measure tool in Adobe Photoshop. The largest spheroids were quantified (20-90 spheroids/well), in a minimum of 8 wells, for a total of >300 spheroids per cell type.
The clinical relevance is that by blocking the formation of spheroids, the cells will be more sensitive to chemotherapy (which targets the single cells that proliferate more rapidly than spheroids).
The spheroid assay for peptides 1-30 were scored using a visual scale of +1 to +5. The controls were scored at +2 (24 hrs) and +4 (48 hrs). […] It may be harder to visually assess the size at 24 hours, since the spheroids are relatively small, but and perhaps some of the peptides are affecting cell division, and that is why the spheroids are smaller than the controls at 48 hours, but not 24 hrs (this can be easily assayed with an MTT assay).
In the case of “EGSPAPSVTWDTEV-NH2 (listed as Homo sapiens) [Peptide 13]”, the Spheroid-24 is 1.
As to “GQDDKVLVATCTSANG-NH2 (listed as Homo sapiens) [Peptide 41]”, the Spheroid-24 is 3.
Consider “AWARVDAGEGAQEL-NH2 (listed as Homo sapiens) [Peptide 4]”, for which the Spheroid-24 amounted to 1.
For “RLKGEAEYQEIRNP-NH2 (listed as Homo sapiens) [Peptide 43]”, the Spheroid-24 came out at 5.

The experiment is the same for the next values; noted with them: 48 hrs; visual scale of +1 to +5; Control = 4.
On to “EGSPAPSVTWDTEV-NH2 (listed as Homo sapiens) [Peptide 13]”, for which the Spheroid-48 stood at 2.
“HGRRAGPVPTA-NH2 (listed as Homo sapiens) [Peptide 56]” yielded a Spheroid-48 of 3.
For the substance “ECRVSTFPAGSFQA-NH2 (listed as Homo sapiens) [Peptide 9]”, the Spheroid-48 was 3.
As for “AWARVDAGEGAQEL-NH2 (listed as Homo sapiens) [Peptide 4]”, the Spheroid-48 is 2.
On the same count and under the same terms, as for “LWHIGREGAMLKCL-NH2 (listed as Homo sapiens) [Peptide 20]”, the figure is 2.
In the case of “WTTLNGSLPKGVEAQNRT-NH2 (listed as Homo sapiens) [Peptide 57]”, the Spheroid-48 came to 3.
